Among the data in patent US10428080B2, “TBK/IKK inhibitor compounds and uses thereof” (Merck Patent GmbH, priority 2015, dated 2019) are IC50 values, retold here.

The target of one test is T1, TBK1 (Homo sapiens, UniProt Q9UHD2).
T1 sequence (Q9UHD2 1-729): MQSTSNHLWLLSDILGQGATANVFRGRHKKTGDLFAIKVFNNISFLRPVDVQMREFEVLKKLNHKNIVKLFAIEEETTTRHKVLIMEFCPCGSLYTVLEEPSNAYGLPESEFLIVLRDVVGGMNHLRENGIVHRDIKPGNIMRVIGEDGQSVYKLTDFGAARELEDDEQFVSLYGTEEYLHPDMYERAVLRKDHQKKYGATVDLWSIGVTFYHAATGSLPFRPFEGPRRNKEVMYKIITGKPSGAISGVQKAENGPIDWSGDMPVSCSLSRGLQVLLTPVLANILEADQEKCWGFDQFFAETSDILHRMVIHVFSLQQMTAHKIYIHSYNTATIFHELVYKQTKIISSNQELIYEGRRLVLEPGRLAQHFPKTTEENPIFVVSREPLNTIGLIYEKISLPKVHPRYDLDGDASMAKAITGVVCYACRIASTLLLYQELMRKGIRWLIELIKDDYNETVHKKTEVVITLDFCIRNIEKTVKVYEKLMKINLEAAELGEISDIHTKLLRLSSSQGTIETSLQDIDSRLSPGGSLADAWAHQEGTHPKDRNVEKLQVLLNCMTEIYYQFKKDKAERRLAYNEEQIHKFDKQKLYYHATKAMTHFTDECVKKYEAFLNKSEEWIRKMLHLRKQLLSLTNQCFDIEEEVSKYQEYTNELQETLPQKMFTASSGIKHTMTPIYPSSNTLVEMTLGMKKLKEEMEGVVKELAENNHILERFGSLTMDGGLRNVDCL
Briefly: TBK Biochemical Assay. The following applies: read-out: TBK1 IC50. In outline:
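TBK1 enzyme and substrate incubated with compounds (10-point 1:4 dilution, top 30 uM final, 1% DMSO) for 90 min at 25° C, then stopped. Substrate/product peaks read by microfluidic mobility-shift (Caliper LabChip); 10 uM staurosporine as full-inhibition control.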

Test [1] relates to phosphorylation of the IRF-3 protein in MDA-MB-468 cells. Nature of the test: pIRF3 immunocytochemistry cell based assay. The following applies: Homo sapiens. In outline:
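MDA-MB-468 cells got compounds (10-point, 3-fold from 10 uM) for 1 h at 37 °C, then 10 ug/ml Poly(I:C) for 2 h. Fixed, permeabilized cells were immunostained for pIRF3 with AlexaFluor488 and counterstained with PI. % phosphorylation was read by laser scanning cytometry, and IC50 curves were fitted.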

The target of another test is T2, IKKε (Homo sapiens, UniProt Q14164).
T2 sequence (Q14164 1-716): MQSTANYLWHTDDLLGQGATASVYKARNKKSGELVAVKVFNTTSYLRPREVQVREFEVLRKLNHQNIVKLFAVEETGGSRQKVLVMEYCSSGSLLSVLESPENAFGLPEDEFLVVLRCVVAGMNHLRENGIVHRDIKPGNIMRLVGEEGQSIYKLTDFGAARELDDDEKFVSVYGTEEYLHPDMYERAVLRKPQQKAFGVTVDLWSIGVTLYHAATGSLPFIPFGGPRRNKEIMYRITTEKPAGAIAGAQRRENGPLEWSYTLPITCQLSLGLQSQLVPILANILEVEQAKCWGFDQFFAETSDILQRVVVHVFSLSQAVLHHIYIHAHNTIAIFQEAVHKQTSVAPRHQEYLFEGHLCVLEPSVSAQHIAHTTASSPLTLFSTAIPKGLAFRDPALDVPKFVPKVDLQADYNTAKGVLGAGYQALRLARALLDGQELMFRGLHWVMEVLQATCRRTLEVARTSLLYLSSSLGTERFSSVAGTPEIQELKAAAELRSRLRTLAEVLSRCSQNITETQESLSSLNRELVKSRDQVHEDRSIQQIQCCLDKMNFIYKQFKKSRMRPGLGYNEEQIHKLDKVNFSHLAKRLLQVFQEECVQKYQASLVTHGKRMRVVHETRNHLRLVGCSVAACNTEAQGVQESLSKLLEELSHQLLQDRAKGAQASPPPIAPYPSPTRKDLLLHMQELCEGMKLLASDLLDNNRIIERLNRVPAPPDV
Nature of the test: IKKe Biochemical Assay. The settings on record: read-out: IKKε IC50. In outline: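 Recombinant IKKε and substrate were incubated with compound (10-point 1:4 series, top 30 uM final, 1% DMSO) for 90 min at 25° C, then stopped. Substrate-to-product conversion was read by LabChip microfluidic mobility shift; 10 uM staurosporine served as full-inhibition wells.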

Setting [2] is: MDA-MB-468, read-out: pIRF3 IC50.
Setting [3] is: MDA-MB-468 cells, Poly(I:C) stimulation, read-out: pIRF3 IC50.

Structures can show the parent of a compound that is named as a salt. Where two headings read alike, the source gives them in different places.

The IC50 is the concentration needed to halve the response being measured. For `CN(C)C(=O)c1cc(-c2cc3nccc(-c4ccc(OC5CCOCC5)c(C#N)c4)c3o2)n(C)c1` [Compound 400, 5-[7-[3-cyano-4-(oxan-4-yloxy)phenyl]furo[3,2-b]pyridin-2-yl]-N,N,1-trimethyl-1H-pyrrole-3-carboxamide], the results for the IC50 (on TBK1; in test [1] (setting [2]); at IKKε) were under 100 nM, 100 to 1000 nM and under 100 nM, respectively.
Turning to `COc1c(C(=O)N(C)C)nn(C)c1-c1cc2nccc(-c3ccc(OC4CCOCC4)c(C#N)c3)c2o1` [Compound 401, 5-[7-[3-cyano-4-(oxan-4-yloxy)phenyl]furo[3,2-b]pyridin-2-yl]-4-methoxy-N,N,1-trimethyl-1H-pyrazole-3-carboxamide hydrochloride], the IC50 is under 100 nM on TBK1, 100 to 1000 nM in test [1] (setting [2]) and under 100 nM on IKKε.
Take `COc1cc(C(=O)N(C)C)n(C)c1-c1cc2nccc(-c3ccc(OC4CCOCC4)c(C#N)c3)c2o1` [Compound 402, 5-[7-[3-cyano-4-(oxan-4-yloxy)phenyl]furo[3,2-b]pyridin-2-yl]-4-methoxy-N,N,1-trimethyl-1H-pyrrole-2-carboxamide]: the IC50 (on TBK1; in test [1] (setting [3]); at IKKε) was under 100 nM throughout.
As to `COc1cc(C(=O)N(C)C)cnc1-c1cc2nccc(-c3ccc(OC4CCNCC4(F)F)c(C#N)c3)c2o1` (stereo not drawn) [Compound 403, 6-(7-[3-cyano-4-[(3,3-difluoropiperidin-4-yl)oxy]phenyl]furo[3,2-b]pyridin-2-yl)-5-methoxy-N,N-dimethylpyridine-3-carboxamide], the 50% inhibitory concentration (IC50) is under 100 nM at TBK1, 100 to 1000 nM in test [1] (setting [3]) and under 100 nM at IKKε.
On to `COc1cc(C(=O)N(C)C)cnc1-c1cc2nccc(-c3ccc(OC4CCN(C)CC4(F)F)c(C#N)c3)c2o1` (stereo not drawn) [Compound 404, 6-(7-[3-cyano-4-[(3,3-difluoro-1-methylpiperidin-4-yl)oxy]phenyl]furo[3,2-b]pyridin-2-yl)-5-methoxy-N,N-dimethylpyridine-3-carboxamide], for which the values for the IC50 (at TBK1; in test [1] (setting [3]); on IKKε) were under 100 nM, 100 to 1000 nM and under 100 nM, respectively.
As for `COc1cc(C(=O)N2CC3C2CCN3C)cnc1-c1cc2nccc(-c3ccc(OC4CCOCC4)c(C#N)c3)c2o1` (stereo not drawn) [Compound 405, 5-[2-[3-methoxy-5-([2-methyl-2,6-diazabicyclo[3.2.0]heptan-6-yl]carbonyl)pyridin-2-yl]furo[3,2-b]pyridin-7-yl]-2-(oxan-4-yloxy)benzonitrile hydrochloride], the results for the IC50 (on TBK1; in test [1] (setting [3]); at IKKε) were under 100 nM, 100 to 1000 nM and under 100 nM, respectively.
For `COc1cc(C(=O)N2CC3CCC2CN3C)cnc1-c1cc2nccc(-c3ccc(OC4CCOCC4)c(C#N)c3)c2o1` (stereo not drawn) [Compound 406, 5-[2-[3-methoxy-5-(([5-methyl-2,5-diazabicyclo[2.2.2]octan-2-yl]carbonyl)pyridin-2-yl]furo[3,2-b]pyridin-7-yl]-2-(oxan-4-yloxy)benzonitrile hydrochloride], the IC50 (on TBK1; in test [1] (setting [3]); on IKKε) was under 100 nM each time.
Regarding `COc1cc(C(=O)N2CCCCN2)cnc1-c1cc2nccc(-c3ccc(OC4CCOCC4)c(C#N)c3)c2o1` [Compound 407, 5-(2-[5-[(1,2-diazinan-1-yl)carbonyl]-3-methoxypyridin-2-yl]furo[3,2-b]pyridin-7-yl)-2-(oxan-4-yloxy)benzonitrile hydrochloride], the IC50 was under 100 nM on TBK1, 100 to 1000 nM in test [1] (setting [3]) and under 100 nM on IKKε.
As for `COc1cc(C(=O)N2CCCCN2C)cnc1-c1cc2nccc(-c3ccc(OC4CCOCC4)c(C#N)c3)c2o1` [Compound 408, 5-(2-[3-methoxy-5-[(2-methyl-1,2-diazinan-1-yl)carbonyl]pyridin-2-yl]furo[3,2-b]pyridin-7-yl)-2-(oxan-4-yloxy)benzonitrile], the IC50 on TBK1 is under 100 nM; in test [1] (setting [2]), 100 to 1000 nM; on IKKε, under 100 nM.
With `COc1cc(C(=O)N2CCCCC2)cnc1-c1cc2nccc(-c3ccc(N4CC[C@@H](F)C4)c(C#N)c3)c2o1` [Compound 410, 2-[(3R)-3-fluoropyrrolidin-1-yl]-5-(2-[3-methoxy-5-[(piperidin-1-yl)carbonyl]pyridin-2-yl]furo[3,2-b]pyridin-7-yl)benzonitrile], the values for the IC50 (at TBK1; in test [1] (setting [3]); at IKKε) were under 100 nM, 100 to 1000 nM and under 100 nM, respectively.
Turning to `COc1cc(C(=O)N2CC3CCC(C2)O3)cnc1-c1cc2nccc(-c3ccc(OC4CCOCC4)c(C#N)c3)c2o1` [Compound 411, 5-[2-[3-methoxy-5-([8-oxa-3-azabicyclo[3.2.1]octan-3-yl]carbonyl)pyridin-2-yl]furo[3,2-b]pyridin-7-yl]-2-(oxan-4-yloxy)benzonitrile hydrochloride], the values for the IC50 (on TBK1; in test [1] (setting [3]); on IKKε) were under 100 nM, 100 to 1000 nM and under 100 nM, respectively.
Take `COc1cc(C(=O)N2C3COCC2CC(O)C3)cnc1-c1cc2nccc(-c3ccc(OC4CCOCC4)c(C#N)c3)c2o1` (stereo not drawn) [Compound 412, 5-[2-[5-([7-hydroxy-3-oxa-9-azabicyclo[3.3.1]nonan-9-yl]carbonyl)-3-methoxypyridin-2-yl]furo[3,2-b]pyridin-7-yl]-2-(oxan-4-yloxy)benzonitrile]: the IC50 (on TBK1; in test [1] (setting [3]); at IKKε) was under 100 nM throughout.
Consider `COc1cc(C(=O)N2CC3CCC2CO3)ncc1-c1cc2nccc(-c3ccc(OC4CCOCC4)c(C#N)c3)c2o1` (stereo not drawn) [Compound 413, 5-[2-[4-methoxy-6-([2-oxa-5-azabicyclo[2.2.2]octan-5-yl]carbonyl)pyridin-3-yl]furo[3,2-b]pyridin-7-yl]-2-(oxan-4-yloxy)benzonitrile hydrochloride], for which the IC50 at TBK1 is under 100 nM; in test [1] (setting [3]), 100 to 1000 nM; at IKKε, under 100 nM.
Consider `COc1cc(C(=O)N2CC3CCC2CO3)cnc1-c1cc2nccc(-c3ccc(OC4CCOCC4)c(C#N)c3)c2o1` (stereo not drawn) [Compound 414, hydrochloride], for which the IC50 (at TBK1; in test [1] (setting [3]); on IKKε) was under 100 nM throughout.
With `COc1cc(C(=O)N2CCC2)cnc1-c1cc2nccc(-c3ccc(OC4CCOCC4)c(C#N)c3)c2o1` [Compound 415, 5-(2-[5-[(azetidin-1-yl)carbonyl]-3-methoxypyridin-2-yl]furo[3,2-b]pyridin-7-yl)-2-(oxan-4-yloxy)benzonitrile], the IC50 is under 100 nM on TBK1, 100 to 1000 nM in test [1] (setting [2]) and under 100 nM on IKKε.
For the compound `COc1cc(C(=O)N2CCCC2)cnc1-c1cc2nccc(-c3ccc(OC4CCOCC4)c(C#N)c3)c2o1` [Compound 416, 5-(2-[3-methoxy-5-[(pyrrolidin-1-yl)carbonyl]pyridin-2-yl]furo[3,2-b]pyridin-7-yl)-2-(oxan-4-yloxy)benzonitrile hydrochloride], the IC50 on TBK1 is under 100 nM; in test [1] (setting [3]), 100 to 1000 nM; at IKKε, under 100 nM.
